From PubChem BioAssay (NCI) come the findings set out here.

Among the test systems are SNB-19 CNS; U251 CNS; SF-539 CNS; UO-31 renal; TK-10 renal; NCI-H23 lung; OVCAR-3 ovarian; HCT-116 colon; SN12C renal; EKVX NSCLC.
Assay in all cases: DTP human tumour cell line panel, 48 h

Molecules are shown by their SMILES. Values joined by “and” are separate entries in the source; they are usually repeats but may differ in a detail not shown here. Identical values can stand only once.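 Compound exposure: 48 hours, 5 concentrations, 96-well plates. The concentration for 50% growth inhibition is given as GI50. TGI marks complete inhibition of growth.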

On to `CCCCCCCCCCCC1CCCC(C)N1` (stereo not given), for which the GI50 (in general, the concentration that inhibits growth by half) in the test on SNB-19 CNS is 11.4 µM; in the test on U251 CNS it was 4.53 µM; in the test on SF-539 CNS it was 12.2 µM; with UO-31 renal, 3.29 µM; in the test with TK-10 renal it was 6.47 µM; in the test on NCI-H23 lung, 8.49 µM. The GI50 in the test on OVCAR-3 ovarian was 12 µM; in the test on HCT-116 colon, 5.82 µM; in the test on SN12C renal, 6.3 µM; in the test on EKVX NSCLC, 12.2 µM. The TGI (commonly the concentration at which net growth stops) is 25.3 µM and 155 µM in the test on SNB-19 CNS; 18.2 µM and 128 µM with U251 CNS; 24.8 µM and 141 µM in the test with SF-539 CNS; 16.4 µM and 105 µM with UO-31 renal; 19.3 µM in the test with TK-10 renal; 23.9 µM and 133 µM in the test on NCI-H23 lung. Further, the TGI in the test on OVCAR-3 ovarian is 28.7 µM and 121 µM; in the test on HCT-116 colon it was > 41.9 µM and 104 µM; in the test on SN12C renal, 23.9 µM and 131 µM; with EKVX NSCLC, 26.3 µM and 119 µM.
Regarding `CC1(C)[C@@H](O[C@@H]2OC[C@@H](O[C@@H]3O[C@H](CO)[C@@H](O)[C@H](O)[C@H]3O[C@@H]3OC[C@@H](O)[C@H](O)[C@H]3O)[C@H](O)[C@H]2O[C@@H]2O[C@H](CO)[C@@H](O)[C@H](O)[C@H]2O)CC[C@]2(C)[C@H]3CC[C@]45OC[C@@]6(CC[C@](C)(C=O)C[C@H]64)[C@H](O)C[C@@]5(C)[C@]3(C)CC[C@@H]12`, the GI50 with SNB-19 CNS is 0.872 µM; with U251 CNS it was 0.99 µM; in the test with SF-539 CNS it was 1.21 µM; with UO-31 renal it was 0.649 µM; in the test on TK-10 renal, 0.945 µM; in the test with NCI-H23 lung, 0.984 µM. Also, the GI50 in the test with OVCAR-3 ovarian was 1.01 µM; in the test with HCT-116 colon it was 0.898 µM; with SN12C renal, 0.847 µM; in the test with EKVX NSCLC, 0.945 µM. Further, the TGI in the test with SNB-19 CNS was 1.77 µM; in the test on U251 CNS, 2.01 µM; in the test with SF-539 CNS, 3.35 µM; in the test with UO-31 renal it was 1.32 µM; in the test with TK-10 renal, 1.83 µM; in the test on NCI-H23 lung, 2.12 µM. In addition, the TGI with OVCAR-3 ovarian was 2.06 µM; in the test on HCT-116 colon it was 1.91 µM; in the test on SN12C renal, 1.79 µM; with EKVX NSCLC, 1.96 µM.
On to `C=C1CC/C=C(\C)C(=O)C[C@@H]2[C@@H]1CC2(C)C`, for which the TGI in the test on SNB-19 CNS came out at 25.7 µM; with U251 CNS, 49.5 µM; in the test with SF-539 CNS, 8.46 µM; in the test on UO-31 renal, 7.64 µM; in the test with TK-10 renal, 17.1 µM; in the test with NCI-H23 lung, 15.4 µM. The TGI worked out at 20.7 µM in the test on OVCAR-3 ovarian, 7.06 µM in the test on HCT-116 colon, 13 µM in the test on SN12C renal and 27.3 µM with EKVX NSCLC.
Turning to `O=C(O)c1cccc(N=Nc2c(S(=O)(=O)O)ccc3c2C(=O)c2ccccc2C3=O)c1O`, the TGI with SNB-19 CNS, with U251 CNS, in the test with SF-539 CNS, in the test with UO-31 renal, in the test on TK-10 renal and in the test on NCI-H23 lung was above 100 µM throughout. The TGI in the test on OVCAR-3 ovarian, in the test with HCT-116 colon, in the test on SN12C renal and with EKVX NSCLC was above 100 µM in each case.
In the case of `COc1cc2c3c(c1OC)-c1c(ccc4c1OCO4)CC3(C#N)N(C(=O)c1ccccc1)CC2` (stereo not given), the TGI with SNB-19 CNS, in the test on U251 CNS, in the test on SF-539 CNS, in the test on UO-31 renal, with TK-10 renal and in the test with NCI-H23 lung was above 100 µM each time. In addition, the TGI with OVCAR-3 ovarian, with HCT-116 colon, in the test with SN12C renal and in the test on EKVX NSCLC was above 100 µM in each case.
With `COC(=O)c1c(N)n[nH]c1N`, the total growth inhibition concentration (TGI) in the test on SNB-19 CNS, with U251 CNS, with SF-539 CNS, in the test on UO-31 renal, with TK-10 renal and in the test on NCI-H23 lung was above 100 µM in each case. Also, the TGI with OVCAR-3 ovarian, in the test with HCT-116 colon, in the test on SN12C renal and in the test on EKVX NSCLC was above 100 µM in each case.
As for `CC(=O)c1ccc(NC(=O)C(=O)Nn2c(=S)[nH]c3ccccc3c2=O)cc1`, the TGI in the test with SNB-19 CNS, with U251 CNS, in the test on SF-539 CNS, in the test with UO-31 renal, in the test on TK-10 renal and in the test with NCI-H23 lung was above 100 µM each time. Further, the concentration for total growth inhibition (TGI) in the test with OVCAR-3 ovarian, in the test with HCT-116 colon, in the test on SN12C renal and in the test with EKVX NSCLC was above 100 µM in each case.
In the case of `O=C(/C=C/c1cc([N+](=O)[O-])ccc1Cl)c1ccccc1`, the GI50 in the test with SNB-19 CNS is 13.3 µM; in the test with U251 CNS, 2.56 µM; with SF-539 CNS it was 16.6 µM; in the test with UO-31 renal it was 11.7 µM; with TK-10 renal, 38.2 µM; in the test on NCI-H23 lung, 15.6 µM. Also, the GI50 in the test with OVCAR-3 ovarian is 5.08 µM; with HCT-116 colon it was 1.59 µM; in the test on SN12C renal, 19.6 µM; with EKVX NSCLC, 13 µM. For the same molecule, the TGI in the test on SNB-19 CNS is 28.3 µM; in the test on U251 CNS, 8.04 µM; in the test with SF-539 CNS it was 32.7 µM; in the test with UO-31 renal, 26.4 µM; in the test with TK-10 renal, above 100 µM; in the test on NCI-H23 lung, 36.2 µM. Moreover, the TGI in the test with OVCAR-3 ovarian is 16.1 µM; in the test on HCT-116 colon it was 2.93 µM; in the test on SN12C renal, 54 µM; in the test on EKVX NSCLC it was 43.2 µM.
As for `Cc1cc(C)nc(NS(=O)(=O)c2ccc(Nc3c4ccc(Cl)cc4nc4c(C(=O)Nc5ccc(S(N)(=O)=O)cc5)cccc34)cc2)n1`, the TGI in the test with SNB-19 CNS turned out to be 93.9 µM; in the test with U251 CNS, 28.7 µM; with SF-539 CNS it was 37.9 µM; in the test with UO-31 renal it was 39.2 µM; with TK-10 renal, 89.6 µM; in the test on NCI-H23 lung, 43 µM. In addition, the TGI with OVCAR-3 ovarian stood at 30.2 µM; with HCT-116 colon, 30.2 µM; in the test on SN12C renal, 30.2 µM; with EKVX NSCLC it was 48.8 µM.
